What was measured:
[1] = Hygroscopicity of oligosaccharide powder at 25° C. in 100% humidity; format: physicochemical; details: 5 g, 10 hours at 25° C. in 100% humidity
From the text: The compositions are to be used in a wide range of foodstuff, cosmetic, or nutraceutical applications, therefore the required hygroscopicity for each application can vary. The aim of this example was to test if hygroscopicity can be adapted by altering the oligosaccharide compositions. • 1. 5 g of oligosaccharide compositions (cellobiose, 4:1 cellobiose:xylo-oligosaccharide, 3:2 cellobiose:xylo-oligosaccharide, 2:3 cellobiose:xylo-oligosaccharide, 1:4 cellobiose:xylo-oligosaccharide, xylo-oligosaccharide) were incubated for 10 hours at 25° C. in 100% humidity. • 2.

[2] = Solubility of cellobiose when combined with xylo-oligosaccharides; format: physicochemical; details: 20-320 mg/mL, vortexed 30 seconds, in the presence of half or the same concentration of xylo-oligosaccharides (e.g., at 80 mg/mL)
Description: 1. Solutions/suspensions of cellobiose at concentrations from 20-320 mg/mL were vortexed for 30 seconds alone (FIG. 4, panel a), in the presence of half the concentration of xylo-oligosaccharides (FIG. 4, panel b), or the same concentration of xylo-oligosaccharides (FIG. 4, panel c).

- water uptake [1]: effectively resisted water uptake
Compound: O=C[C@H](O)[C@@H](O)[C@H](O[C@@H]1O[C@H](CO)[C@@H](O)[C@H](O)[C@H]1O)[C@H](O)CO [cellobiose]
- dissolution of cellobiose [2]: enabled more readily at higher concentrations

Reference: US11596165B2, “Compositions, their use, and methods for their formation” (Cambridge Glycoscience Ltd, priority 2018, dated 2023)
